outcome, IC50 and EC50 data for 52 compounds are collected here from PubChem BioAssay AID179 (DTP/NCI, 2004).

This test relates to CEM cells HIV-1 protection, formazan growth assay. Briefly: NCI AIDS Antiviral Assay. The note with it: for IC50: measured here: growth of uninfected CEM cells. In short, it runs like this:
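Screen of anti-HIV-1 activity in human CEM cells using a formazan-based growth measurement at five drug concentrations. Hits with 50% or greater protection were repeated, and confirmation required reproducible complete protection.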

Active and inactive are the calls of the source.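 Rule for the calls: active = compounds giving half or more protection of infected cells from virus-caused growth loss, again on retest; inactive = the rest.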 A value given as a limit tells only on which side of the number the result lay.

The IC50 is the point on the concentration scale where inhibition reaches its midpoint. A higher IC50 goes with lower potency. As for `CCCCCSCCCCCCCC(=O)OCC1OC(n2cc(C)c(=O)[nH]c2=O)CC1N=[N+]=[N-]` (configuration not stated), the result was active and the IC50 is 91.2 µM.
One may read the EC50 as the midpoint of the concentration-response curve. Turning to `Cc1cc(C)c(C2CNCc3cc4c(cc32)CNCC4c2c(C)cc(C)cc2C)c(C)c1` (configuration not stated), the EC50 is greater than 20 µM and the IC50 was determined as 2.57 µM.
As for `O=C1c2ccccc2-c2nnc(-c3ccc([N+](=O)[O-])cc3)cc21`, the EC50 was greater than 100 µM and the IC50 is greater than 100 µM.
In the case of `CC12CN3CC(C)(C1=O)C(=O)C(C)(C3)C2=O`, the EC50 is greater than 117 µM and the IC50 was greater than 117 µM.
With `Cn1cc(NC(=O)c2nc(NC(=O)c3nc(NC(=O)c4ccc(C(=O)Nc5cn(C)c(C(=O)Nc6cn(C)c(C(=O)Nc7cn(C)c(C(=O)NCCC(=N)N)n7)n6)n5)nc4)cn3C)cn2C)nc1C(=O)NCCC(=N)N`, the EC50 is greater than 50.1 µM and the IC50 was determined as 1.17 µM.
Turning to `C[C@@H]1C[C@H]2[C@@H]3CCC4=CC(=O)C=C[C@]4(C)[C@@]3(F)[C@@H](O)C[C@]2(C)[C@@]1(O)C(=O)CO`, the outcome was inactive.
Consider `O=C(NN1C(=O)c2ccccc2C1=O)c1ccccc1Nc1ccccc1C(=O)NN1C(=O)c2ccccc2C1=O`, for which the EC50 is greater than 200 µM and the IC50 was greater than 200 µM.
Regarding `COc1cc(NC=C2C(=O)OC(C)(C)OC2=O)c(OC)c(C)c1OC`, the EC50 is greater than 200 µM and the IC50 is greater than 200 µM.
For `C=C[C@@H]1OC(=O)O[C@H]1CO`, the EC50 is greater than 200 µM and the IC50 was greater than 200 µM.
`CC(=O)N(CCN)CCN`: the result was inactive.
Turning to `CC(C)c1cccc(C(C)C)c1NC(=O)/C(Cc1nc2ccc(Cl)cc2[nH]c1=O)=N\NC(=O)C[N+](C)(C)C`, the EC50 is greater than 162 µM and the IC50 was greater than 162 µM.
With `COc1ccc(/C=C/C(=O)Oc2ccc(/C=C3\CCCCC3=O)cc2)cc1`, the EC50 was greater than 200 µM and the IC50 was determined as 1.05 µM.
With `COc1ccc(C(=O)Nc2ccc(S(=O)(=O)NCC(=O)O)cc2)cc1`, the outcome was inactive.
On to `COc1ccc2c(c1)CCC1OC(c3cccnc3)OC21` (configuration not stated), for which the EC50 was greater than 200 µM and the IC50 stood at 30.2 µM.
Consider `Cc1ccc(O)c(C(=O)CCCC(=O)c2cc(C)ccc2O)c1`, for which the EC50 was greater than 12 µM and the IC50 is greater than 12 µM.
For the compound `CN1C(=O)/C(=C2\SC(=O)N(CN3CCOCC3)C2=O)c2ccccc21`, the EC50 is greater than 200 µM and the IC50 was 37.2 µM.
In the case of `COC1=CC(=O)C2C(C1=O)C(c1ccc(OC)c(OC)c1)[C@H]2C` (some centres not stated), the EC50 is greater than 12 µM and the IC50 was greater than 12 µM.
For `Cc1csc2nc(-c3ccccc3)cn12`, the EC50 was greater than 437 µM and the IC50 is 204 µM.
Take `O=c1cc(NCCCCCO)[nH]c(=O)[nH]1`: the EC50 is greater than 200 µM and the IC50 was greater than 200 µM.
Turning to `COc1ccc(-n2cnc3c2NC(C)(C)N=C3C(N)=O)c(OC)c1`, the EC50 is greater than 200 µM and the IC50 was greater than 200 µM.
With `COC(=O)[C@@]1(C(C)CC(=O)O)CCCCC1=O` (some centres not stated), the EC50 was greater than 1020 µM and the IC50 amounted to 214 µM.
As for `CC1CCC2(CCN(CCCN(C)C)CC2)C1` (configuration not stated), the outcome was inactive.
Regarding `COc1ccccc1NC(=O)C(/C=N/C(N)=S)=C(\C)O`, the EC50 is greater than 200 µM and the IC50 is greater than 200 µM.
Consider `CC(=O)Oc1c2c(c(O)c3ccccc13)C(n1cnc3c(ncn3C3OC(CO)C4OC(C)(C)OC43)c1=N)CCC2` (configuration not stated), for which the EC50 was greater than 45.7 µM and the IC50 was 12.9 µM.
Turning to `CC1C=C[C@H](Sc2ccccc2)CC[C@@]1(C)O` (some centres not stated), the EC50 is greater than 251 µM and the IC50 was determined as 22.4 µM.
Regarding `CN(/N=C/c1cccs1)c1ccc([N+](=O)[O-])cc1[N+](=O)[O-]`, the EC50 is greater than 200 µM and the IC50 amounted to 107 µM.
Turning to `CCOC(=O)CC1(Cc2ccc(OCc3ccccc3)cc2)C(=O)OC(c2ccccc2)N1C(=O)c1ccccc1` (configuration not stated), the EC50 was greater than 200 µM and the IC50 was greater than 200 µM.
Take `O=C(O)c1csc(C(=O)O)c1`: the EC50 is 162 µM and the IC50 stood at 759 µM.
`Cc1ccc(C(=O)N2CCCCC2)cc1N=NN(C)C`: the EC50 is greater than 263 µM and the IC50 worked out at 240 µM.
The like results for `CCCC(=O)NC1CCc2cc(OC)c(OC)c(OC)c2-c2ccc(OC)c(=O)cc21` (configuration not stated) were, in that order, greater than 2 µM and 0.0126 µM.
In the same order, the values of `O=C(Nc1ccc(CCC2=NCCCN2)cc1)c1ccc(C(=O)Nc2ccc(CCC3=NCCCN3)cc2)cc1` are 42.7 µM and 158 µM.
In the case of `COc1ccc2c(O)c(-c3ccc(OC)c(OC)c3)c(=O)oc2c1`, the result was inactive.
As for `CNCCN=c1ccc2c3c1c(O)c1c(O)ccc(=O)c1c3[nH]n2CCNCCO`, the EC50 is greater than 112 µM and the half-maximal inhibitory concentration (IC50) is 0.347 µM.
With `COc1ccccc1CNCc1nc2ccccc2[nH]1`, the EC50 is greater than 200 µM and the IC50 amounted to 155 µM.
As for `COC(=O)c1ccccc1CC1Cc2ccc3c(c2C1=O)CCC3` (configuration not stated), the EC50 is greater than 200 µM and the IC50 is greater than 200 µM.
In the case of `COc1cc([C@H]2c3cc(O)c(OC)cc3CC3C(=O)OCC32)ccc1O` (some centres not stated), the EC50 is greater than 363 µM and the IC50 is greater than 363 µM.
With `COC(=O)CCc1ccc2c(c1)CCC2`, the EC50 is greater than 200 µM and the IC50 is greater than 200 µM.
In turn, `O=[As](O)(O)c1cccc(F)c1` displayed an EC50 greater than 200 µM and an IC50 of 107 µM.
Regarding `O=C(O)C1=C(Cl)c2ccccc2S1(=O)=O`, the outcome was inactive.
For the compound `O=C(/C=C/c1c(O)ccc2ccccc12)c1cccc2ccccc12`, the EC50 is greater than 162 µM and the IC50 was determined as 112 µM.
For `CSc1ccc2nncc(SC)c2c1`, the EC50 is greater than 158 µM and the IC50 is 57.5 µM.
On to `Nc1c(-c2ccccc2[N+](=O)[O-])nc2ccccn12`, for which the EC50 was greater than 513 µM and the IC50 came to 120 µM.
On to `CN(C)C(=S)N1C(=S)N(c2ccccc2)C(=Nc2ccccc2)C1=Nc1ccccc1`, for which the EC50 was greater than 200 µM and the IC50 amounted to 170 µM.
For the compound `CSc1csc(-c2ccc(-c3ccc(-c4cc(SC)cs4)s3)s2)c1`, the EC50 was greater than 100 µM and the IC50 is greater than 100 µM.
Take `O=C(CSc1nc2[nH]ncc2c(=O)[nH]1)c1ccc(Cl)cc1`: the EC50 was greater than 200 µM and the IC50 is greater than 200 µM.
As for `COC(=O)c1cc(C(=CCC[C@H]2CC[C@@]3(C)C(CCC4C3CC[C@@]3(C)C4CC[C@@H]3C(C)CCCC(C)C)C2)c2cc(Cl)c(O)c(C(=O)OC)c2)cc(Cl)c1O` (some centres not stated), the EC50 was greater than 200 µM and the IC50 was greater than 200 µM.
With `CCc1n[nH]c(=O)[nH]1`, the EC50 was greater than 200 µM and the IC50 is greater than 200 µM.
Regarding `O=C(N[C@@H](CSSC[C@H](NC(=O)OCc1ccccc1)C(=O)O)C(=O)O)OCc1ccccc1`, the EC50 is greater than 200 µM and the IC50 was determined as 74.1 µM.
The like results for `N#CCCN(CCC#N)c1ccc(/C=C2\SC(=S)NC2=O)cc1Br` were, in that order, greater than 200 µM and greater than 200 µM.
In the case of `NC(CCSSCCC(N)C(=O)O)C(=O)O` (configuration not stated), the EC50 is greater than 19.5 µM and the IC50 was greater than 19.5 µM.
`CN1CN(c2ccccc2)C2(CCN(Cc3nc4ccccc4s3)CC2)C1=O`: the EC50 is greater than 200 µM and the IC50 is 30.9 µM.
Regarding `CNC(=S)N/N=C1\CC(c2ccccc2)Oc2ccccc21` (configuration not stated), the outcome was inactive.
